Assay results from patent publication US5620676A, “Biologically active ATP analogs” (priority 1995, dated 1997).

Experiments:
[1] = molecular target: T1, P2X receptor (saphenous artery) (Oryctolagus cuniculus, UniProt G1U3D6); assay: Contraction of rabbit saphenous artery
T1 construct: and rabbit saphenous artery; from tissue; host or cells: rabbit saphenous artery
T1 sequence (G1U3D6 1-399): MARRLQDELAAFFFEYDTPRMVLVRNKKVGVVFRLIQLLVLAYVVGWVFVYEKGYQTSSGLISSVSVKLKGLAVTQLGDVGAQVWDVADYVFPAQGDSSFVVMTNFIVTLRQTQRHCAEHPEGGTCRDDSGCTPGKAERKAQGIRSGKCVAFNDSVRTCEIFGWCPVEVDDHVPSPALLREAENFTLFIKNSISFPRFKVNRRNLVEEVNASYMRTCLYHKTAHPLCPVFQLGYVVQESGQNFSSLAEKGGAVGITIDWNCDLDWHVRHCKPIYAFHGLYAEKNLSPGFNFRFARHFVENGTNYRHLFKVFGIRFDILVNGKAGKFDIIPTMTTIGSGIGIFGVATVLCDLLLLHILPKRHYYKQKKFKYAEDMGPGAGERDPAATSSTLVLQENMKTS
Method in brief: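 Contraction of isolated rabbit saphenous artery, standard organ-bath methods; responses at 10 μM expressed as percentage of contraction produced by 1 μM α,MeATP. Highest analogue concentrations tested were 3-30 […].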

[2] = molecular target: T2, P2Y receptor (taenia coli) (Cavia porcellus, UniProt P59902); assay: Relaxation of carbachol-contracted guinea pig taenia coli; settings: guinea pig taenia coli
T2 construct: Relaxant responses mediated via P2Y receptors were examined in guinea pig taenia coli; from tissue; host or cells: guinea pig taenia coli (carbachol-contracted)
T2 sequence (P59902 whole entry): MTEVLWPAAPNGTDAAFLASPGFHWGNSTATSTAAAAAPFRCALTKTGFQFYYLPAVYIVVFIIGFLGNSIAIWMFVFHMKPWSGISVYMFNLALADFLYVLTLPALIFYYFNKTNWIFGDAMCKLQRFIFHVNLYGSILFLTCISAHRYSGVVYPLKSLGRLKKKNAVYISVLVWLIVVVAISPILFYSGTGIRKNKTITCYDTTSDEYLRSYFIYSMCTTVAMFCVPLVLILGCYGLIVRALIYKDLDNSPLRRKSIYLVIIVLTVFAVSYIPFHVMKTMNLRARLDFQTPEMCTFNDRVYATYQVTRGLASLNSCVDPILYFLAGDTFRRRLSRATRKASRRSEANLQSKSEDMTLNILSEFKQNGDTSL
Method in brief: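 Guinea pig taenia coli precontracted with 50 nM carbachol; relaxation to applied P2Y agonists expressed as percentage relaxation against negative log molar agonist concentration.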

[3] = molecular target: T3, P2X receptor (urinary bladder) (Cavia porcellus, UniProt A0A286XVA9); assay: Contraction of guinea pig isolated urinary bladder detrussor muscle; settings: guinea pig urinary bladder
T3 construct: guinea pig isolated urinary bladder detrussor muscle; from tissue; host or cells: guinea pig isolated urinary bladder detrusor muscle

[4] = molecular target: T1, P2X receptor (saphenous artery); settings: Burnstock et al., 1987a; cited from earlier work
[5] = molecular target: T3, P2X receptor (urinary bladder); settings: cited from earlier work
[6] = molecular target: T4, P2Y receptor (turkey erythrocyte membranes) (Meleagris gallopavo, UniProt P49652); assay: Stimulation of phospholipase C (inositol phosphate formation) in turkey erythrocyte membranes; type: biochemical; settings: turkey erythrocyte membranes
T4 construct: from tissue; host or cells: washed turkey erythrocytes, ghosts prepared by hypotonic lysis
T4 sequence (P49652 whole entry): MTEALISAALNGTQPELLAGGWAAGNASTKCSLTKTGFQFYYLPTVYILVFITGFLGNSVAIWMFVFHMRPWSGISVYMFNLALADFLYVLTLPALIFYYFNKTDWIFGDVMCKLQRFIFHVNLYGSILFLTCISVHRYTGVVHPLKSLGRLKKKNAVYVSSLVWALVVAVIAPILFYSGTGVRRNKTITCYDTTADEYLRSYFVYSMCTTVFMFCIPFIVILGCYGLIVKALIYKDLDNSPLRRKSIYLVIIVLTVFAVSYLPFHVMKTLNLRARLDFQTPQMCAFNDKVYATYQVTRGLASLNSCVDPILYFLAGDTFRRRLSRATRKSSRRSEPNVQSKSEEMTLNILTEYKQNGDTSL
Method in brief: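 Erythrocytes were labelled 18-24 h at 37 °C with [3H]myoinositol, and ghosts were made by hypotonic lysis. Ghosts (≈175 μg protein) were incubated 5 min at 30 °C in Hepes buffer pH 7.0 with 1 μM GTPγS and nucleotide analogs. Total [3H]inositol phosphates were purified by anion exchange; K0.5 averaged from 3-8 dose-response curves.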

[7] = tested on: P2X receptor (vas deferens); settings: Burnstock et al. 1985; cited from earlier work
[8] = molecular target: T5, P2X receptor (vas deferens) (Cavia porcellus, UniProt A0A286XVA9); settings: guinea pig vas deferens; log molar units; footnote e: literature data; cited from earlier work
T5 sequence (A0A286XVA9 1-399): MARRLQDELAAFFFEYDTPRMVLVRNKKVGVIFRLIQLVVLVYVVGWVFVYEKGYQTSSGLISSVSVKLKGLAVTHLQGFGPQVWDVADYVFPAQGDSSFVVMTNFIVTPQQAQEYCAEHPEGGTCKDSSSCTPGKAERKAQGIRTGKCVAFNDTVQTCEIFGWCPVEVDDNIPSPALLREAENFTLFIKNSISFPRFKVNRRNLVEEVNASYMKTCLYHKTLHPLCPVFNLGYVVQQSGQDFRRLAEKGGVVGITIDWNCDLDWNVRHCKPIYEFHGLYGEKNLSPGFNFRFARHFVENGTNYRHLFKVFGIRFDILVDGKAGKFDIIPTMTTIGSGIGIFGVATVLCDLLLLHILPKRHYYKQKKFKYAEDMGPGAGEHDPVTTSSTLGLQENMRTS

[9] = molecular target: T2, P2Y receptor (taenia coli); settings: guinea pig taenia coli; log molar units; footnote e: literature data; cited from earlier work
[10] = molecular target: T5, P2X receptor (vas deferens); assay: Contraction of guinea pig isolated vas deferens
Excerpt: Muscular relaxation/contraction: Relaxant responses mediated via P2Y receptors were examined in guinea pig taenia coli, rabbit aorta, and rabbit mesenteric artery, as described by Hoyle et al. (Br. J. Pharmacol., 107, 367-374 (1992a)), Burnstock et al., (Br. J. Pharmacol., 90, 383-391 (1987a)), and Rubino et al., (Eur. J. Pharmacol., 212, 237-240 (1992)). Contractile responses mediated via P2X receptors were examined in the guinea pig urinary bladder and vas deferens, and rabbit saphenous artery, also using standard methods (see Hoyle et al., supra., 1992; Hoyle et al., Br. J. Pharmacol., 99, 617-621 (1990); and Burnstock et al., Br. J. Pharmacol., 90, 111-120 (1987b)).
In FIG. 14, the x-axis is also marked in units of the negative log of the molar concentration of applied putative P2Y receptor agonists and the y-axis is marked in units of the percentage relaxation of the 1 μM noradrenalin-induced contraction of rabbit aorta endothelium. In FIGS. 15-16, the x-axis is marked in units of the negative log of the molar concentration of applied putative p^2X receptor agonists and the y-axis is marked in units of the percentage contraction relative to a standard dose of KCl (i.e., 60 mM), as assessed in guinea pig isolated urinary bladder detrussor muscle (FIG. 15) and guinea pig isolated vas deferens (FIG. 16).

Nc1ncnc2c1ncn2[C@@H]1O[C@H](COP(=O)(O)CP(=O)(O)OP(=O)(O)O)[C@@H](O)[C@H]1O [a,β-Me-ATP, α,β-methylene-ATP]
contraction produced by 1 μM, saphenous artery ([1]; rabbit saphenous artery, 1 μM): half maximal effect | activation at 10 µM ([1]; read-out: response at 10 μM relative to the contraction produced by 1 μM α,MeATP, saph. artery): 5.9% | activity/potency in words, taenia coli [2]: reduced activity in the taenia coli | activity/potency in words, bladder [3]: markedly enhanced activity | activity in words, saphenous artery [4]: a potent constrictor | activity in words, urinary bladder ([5]; Burnstock et al. 1985): a potent constrictor | contraction pD2, bladder ([5]; guinea pig urinary bladder, log molar units, footnote e: literature data): 5.7 | activity/potency in words, turkey erythrocyte [6]: a very weak, yet full agonist | EC50 ([6]; mean ± S.E.M. for at least 2 determinations, read-out: phosphatidyl inositol metabolism (K0.5, nM) erythrocyte): > 100000 nM | activity in words, vas deferens [7]: a potent constrictor | contraction pD2, vas [8]: 5.3 | relaxation pD2, taenia coli [9]: 5.6 | activity/potency in words, vas deferens [10]: markedly enhanced activity
